Data reported in ChEMBL document CHEMBL1135324, “Quaternary salts of E2020 analogues as acetylcholinesterase inhibitors for the reversal of neuromuscular block” (Bioorg Med Chem Lett, 2002).

Tests used:
Acetylcholinesterase [1] = biological target: T1, Acetylcholinesterase (Homo sapiens, UniProt P22303)
Description: In vitro reversal of vecuronium-induced neuromuscular block in guinea pig hemi-diaphragm.

[2] = Tested for water solubility of the compound; format: ADME; settings: read-out: S
Acetylcholinesterase [3] = biological target: T1, Acetylcholinesterase; remark: listed apart in the source
Felis catus [4] = experiment: Mean arterial pressure change was detected in anaesthetised cats on administration of the compound; format: functional, Artery; also: test concentration or dose not given here
Felis catus [5] = experiment: Change in response to vagal stimulation was detected in anaesthetised cats on administration of the compound; format: functional; also: test concentration or dose not given here
Felis catus [6] = experiment: Effective dose required for the reversal of vecuronium-induced neuromuscular block in-vivo in Chloaralose anaesthetised cats; format: functional
Felis catus [7] = experiment: Maximum reversal of vecuronium-induced neuromuscular block in-vivo in anaesthetised cats; format: functional
Felis catus [8] = experiment: Change in heart rate was detected in anaesthetised cats on administration of the compound; format: functional; also: test concentration or dose not given here
Felis catus [9] = experiment: Maximum reversal of vecuronium-induced neuromuscular block in-vivo in anaesthetised cats at 1.28 umol/kg; format: functional
Acetylcholinesterase [10] = biological target: T1, Acetylcholinesterase; experiment: In vitro inhibition of human recombinant AChE.

T1 sequence (P22303 whole entry): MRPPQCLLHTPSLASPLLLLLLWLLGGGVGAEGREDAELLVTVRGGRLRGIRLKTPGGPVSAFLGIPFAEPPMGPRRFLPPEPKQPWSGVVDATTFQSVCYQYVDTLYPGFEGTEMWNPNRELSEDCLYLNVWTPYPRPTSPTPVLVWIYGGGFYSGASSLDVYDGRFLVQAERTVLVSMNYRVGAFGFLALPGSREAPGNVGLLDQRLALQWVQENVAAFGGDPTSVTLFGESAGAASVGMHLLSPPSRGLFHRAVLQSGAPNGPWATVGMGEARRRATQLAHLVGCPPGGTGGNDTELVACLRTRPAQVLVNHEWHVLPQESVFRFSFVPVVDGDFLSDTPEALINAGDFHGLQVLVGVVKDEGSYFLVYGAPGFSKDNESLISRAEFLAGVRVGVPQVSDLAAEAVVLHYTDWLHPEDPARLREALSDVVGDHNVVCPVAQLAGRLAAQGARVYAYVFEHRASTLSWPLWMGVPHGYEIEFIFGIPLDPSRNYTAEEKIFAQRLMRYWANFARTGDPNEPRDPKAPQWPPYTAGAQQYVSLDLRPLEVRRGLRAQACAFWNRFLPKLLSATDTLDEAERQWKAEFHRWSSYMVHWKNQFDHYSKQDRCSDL

## COc1cc2c(cc1OC)C(=O)[C@@H]([C@H](O)C1CC[N+](C)(Cc3ccccc3)CC1)C2 (some centres not stated)
Acetylcholinesterase [1]
  EC50: 0.89 µM

## Cc1cc(C(=O)CCC2CC[N+](C)(Cc3ccccc3)CC2)nn1-c1ccccc1 (configuration not stated)
[2]
  solubility: 2000 µg/mL
Acetylcholinesterase [3]
  IC50: 0.022 µM
Acetylcholinesterase [1]
  EC50: 0.43 µM

## COc1cc2cc(C(=O)CCC3CC[N+](C)(Cc4ccccc4)CC3)n(C)c2cc1OC (configuration not stated)
[2]
  solubility: 1200 µg/mL
Acetylcholinesterase [3]
  IC50: 0.12 µM
Acetylcholinesterase [1]
  EC50: 1.6 µM

## COc1cc2c(cc1OC)C(=O)C(CC1CCN(Cc3ccccc3)CC1)C2 (configuration not stated) [DONEPEZIL]
Felis catus [4]
  MAP: -12 delta %
Felis catus [5]
  Vagus: 14 delta %
Felis catus [6]
  ED50: 0.53 µmol/kg
Felis catus [7]
  Max rev: 106%
Felis catus [8]
  HR: -12 delta %

## C[N+]1(Cc2ccccc2)CCC(CCC(=O)c2ccc3c(c2)CCCCO3)CC1 (configuration not stated)
[2]
  solubility: 5000 µg/mL
Acetylcholinesterase [3]
  IC50: 0.139 µM

## COc1cc2c(cc1OC)C(=O)C(CC1CC[N+](C)(Cc3ccccc3)CC1)C2 (configuration not stated)
Felis catus [4]
  MAP: -22 delta %
Felis catus [5]
  Vagus: 37 delta %
Felis catus [6]
  ED50: ~0.06 µmol/kg
Felis catus [7]
  Max rev: 131%
Felis catus [8]
  HR: 11 delta %
Acetylcholinesterase [3]
  IC50: 0.025 µM
Acetylcholinesterase [1]
  EC50: 0.1 µM

## COc1ccc2cc(C(=O)CCC3CC[N+](C)(Cc4ccccc4)CC3)ccc2c1 (configuration not stated)
[2]
  solubility: < 1000 µg/mL
Acetylcholinesterase [3]
  IC50: 0.05 µM
Acetylcholinesterase [1]
  EC50: 0.53 µM

## C[N@+]1(Cc2ccccc2)CC[C@H](CCC(=O)c2ccc3c(c2)CCO3)CC1
[2]
  solubility: > 10000 µg/mL
Acetylcholinesterase [3]
  IC50: 0.066 µM

## O=C(CCC1CCN(Cc2ccccc2)CC1)c1ccc2c(c1)NCCCC2 [ZANAPEZIL]
Felis catus [4]
  MAP: -11 delta %
Felis catus [5]
  Vagus: 8 delta %
Felis catus [6]
  ED50: 3.7 µmol/kg
Felis catus [7]
  Max rev: 68%
Felis catus [8]
  HR: -5 delta %

## COc1ccc2c3c1OC1C[C@@H](O)C=C[C@@]31CC[N+](C)(C)C2 (some centres not stated)
Felis catus [4]
  MAP: 16 delta %
Felis catus [5]
  Vagus: 80 delta %
Felis catus [6]
  ED50: 0.1 µmol/kg
Felis catus [7]
  Max rev: 130%
Felis catus [8]
  HR: -5 delta %
Acetylcholinesterase [3]
  IC50: ~0.5 µM
Acetylcholinesterase [1]
  EC50: 0.63 µM

## COc1cc2c(cc1OC)C(=O)C(C(O)C1CC[N+](C)(Cc3ccccc3)CC1)C2 (configuration not stated)
Felis catus [4]
  MAP: -22 delta %
Felis catus [5]
  Vagus: 18 delta %
Felis catus [6]
  ED50: 0.21 µmol/kg
Felis catus [9]
  Max rev: 109%
Felis catus [8]
  HR: -12 delta %
Acetylcholinesterase [1]
  EC50: 1.44 µM

## COc1cc2c(cc1OC)C(=O)C(Cc1cc[n+](Cc3ccccc3)cc1)C2 (configuration not stated)
Acetylcholinesterase [1]
  EC50: 0.1 µM

## COc1cc2c(cc1OC)C(=O)[C@@H]([C@@H](O)C1CC[N+](C)(Cc3ccccc3)CC1)C2 (some centres not stated)
Acetylcholinesterase [1]
  EC50: 2.7 µM

## C[N+]1(Cc2ccccc2)CCC(CCC(=O)c2ccc3c(c2)CCO3)CC1 (configuration not stated)
[2]
  solubility: 1500 µg/mL
Acetylcholinesterase [3]
  IC50: 0.017 µM
Acetylcholinesterase [1]
  EC50: 0.09 µM

## C[N+]1(Cc2ccccc2)CCC(CCC(=O)c2ccc3c(c2)OCO3)CC1 (configuration not stated)
[2]
  solubility: 500 µg/mL
Acetylcholinesterase [3]
  IC50: 0.24 µM
Acetylcholinesterase [1]
  EC50: 1.7 µM

## COc1cc2c(cc1OC)C(=O)C(C(O)c1cc[n+](Cc3ccccc3)cc1)C2 (configuration not stated)
Acetylcholinesterase [1]
  EC50: 1.88 µM

## C[N+]1(Cc2ccccc2)CCC(CCC(=O)c2ccc3c(c2)OCCO3)CC1 (configuration not stated)
[2]
  solubility: < 500 µg/mL
Acetylcholinesterase [3]
  IC50: 0.1 µM
Acetylcholinesterase [1]
  EC50: > 3 µM

## C[N+]1(Cc2ccccc2)CCC(CCC(=O)c2ccc3c(c2)NCCCC3)CC1 (configuration not stated)
Felis catus [4]
  MAP: -6 delta %
Felis catus [5]
  Vagus: 10 delta %
Felis catus [6]
  ED50: 0.15 µmol/kg
Felis catus [7]
  Max rev: 140%
Felis catus [8]
  HR: 4 delta %
Acetylcholinesterase [3]
  IC50: < 0.5 µM
Acetylcholinesterase [1]
  EC50: 0.331 µM

## COc1cc2cc(C(=O)CCC3CC[N+](C)(Cc4ccccc4)CC3)sc2cc1OC (configuration not stated)
[2]
  solubility: 2000 µg/mL
Acetylcholinesterase [3]
  IC50: 0.008 µM
Acetylcholinesterase [1]
  EC50: 0.019 µM

## COc1cc2c(cc1OC)C(=O)C(C(O)C1CC[N+](Cc3ccccc3)(Cc3ccccc3)CC1)C2 (configuration not stated)
Acetylcholinesterase [1]
  EC50: 43.5 µM

## COc1cc2c(cc1OC)C(=O)/C(=C/c1cc[n+](Cc3ccccc3)cc1)C2
Acetylcholinesterase [1]
  EC50: 0.012 µM

## CC1=CC2Cc3[nH]c(=O)ccc3C3(C1)C2CCCN3C (configuration not stated)
Acetylcholinesterase [3]
  IC50: > 100 µM
Acetylcholinesterase [1]
  EC50: > 10 µM

## CC1=C[C@H]2Cc3[nH]c(=O)ccc3[C@]3(C1)NCCC[C@H]23 [HUPERZINE B]
Acetylcholinesterase [10]
  IC50: 0.03 µM
Felis catus [4]
  MAP: -17 delta %
Felis catus [5]
  Vagus: 102 delta %
Felis catus [6]
  ED50: 0.08 µmol/kg
Felis catus [7]
  Max rev: 156%
Felis catus [8]
  HR: -8 delta %
Acetylcholinesterase [1]
  EC50: 0.019 µM
